The text below walks through data of patent US20140206681A1, “BTK INHIBITORS” (priority 2013, published 2014).

As usually defined, the IC50 is the concentration that inhibits the measured activity by half.

For one assay, the system named is HeLa cells. Briefly: [3H]Adenosine uptake functional cellular assay. The assay is classed as cell-based. Particulars: Homo sapiens, HeLa, accumulation of [3H]adenosine into HeLa cells; compound range 10 μM to […]; read-out: Adenosine uptake inhibition IC50. The protocol:
Compounds are also screened in an adenosine uptake functional cellular assay using the protocol described below. The adenosine uptake inhibition assay may be used to identify compounds with the potential for a negative cardiovascular side effect.
Adenosine uptake activity was determined by monitoring the accumulation of tritiated adenosine into HeLa cells (ATCC catalog # CCL-2) using a PMT-based radiometric detection instrument. […] These cells were incubated overnight at 37° C. in a humidified atmosphere with 5% (v/v) CO2. After this time the growth medium was removed and replaced with 40 μL assay medium comprising: Hanks balanced salts solution (HBSS; Thermo Fisher Catalog # SH30268.01)+5% (v/v) FBS. […] 40 μL of compound in the assay medium was dispensed into individual wells of the Cytostar-T plates and the plates were incubated for 30 minutes under ambient laboratory conditions. Following this incubation, 20 μL of 500 nM [^3H]adenosine (American Radiolabeled Chemicals Inc. Catalog # ART0287) was added in the assay medium and incubated for a further 60 minutes under ambient laboratory conditions. The amount of radiolabel accumulation was then determined using a Perkin Elmer Topcount NXT microplate reader. In brief, HeLa cells adhere to the bottom of the Cytostar-T plate, uptake of [^3H]adenosine into these cells brings the radiolabel into sufficient proximity to excite the scintillant in the base of the plates. These events are captured by single PMT, time-resolved coincidence counting. IC50 values were determined by 4 parameter robust fit of counts per second values vs. (Log10) compound concentrations.

Assay [1] deals with T1, BTK enzyme (recombinant full-length BTK, hBTK) (Homo sapiens, UniProt Q06187).
T1 construct: recombinant protein from baculovirus-transfected Sf9 cells: full-length BTK, 6HIS-tag cleaved; 6HIS (cleaved yes); made in house; host or cells: baculovirus-transfected Sf9 cells
T1 sequence (Q06187 whole entry): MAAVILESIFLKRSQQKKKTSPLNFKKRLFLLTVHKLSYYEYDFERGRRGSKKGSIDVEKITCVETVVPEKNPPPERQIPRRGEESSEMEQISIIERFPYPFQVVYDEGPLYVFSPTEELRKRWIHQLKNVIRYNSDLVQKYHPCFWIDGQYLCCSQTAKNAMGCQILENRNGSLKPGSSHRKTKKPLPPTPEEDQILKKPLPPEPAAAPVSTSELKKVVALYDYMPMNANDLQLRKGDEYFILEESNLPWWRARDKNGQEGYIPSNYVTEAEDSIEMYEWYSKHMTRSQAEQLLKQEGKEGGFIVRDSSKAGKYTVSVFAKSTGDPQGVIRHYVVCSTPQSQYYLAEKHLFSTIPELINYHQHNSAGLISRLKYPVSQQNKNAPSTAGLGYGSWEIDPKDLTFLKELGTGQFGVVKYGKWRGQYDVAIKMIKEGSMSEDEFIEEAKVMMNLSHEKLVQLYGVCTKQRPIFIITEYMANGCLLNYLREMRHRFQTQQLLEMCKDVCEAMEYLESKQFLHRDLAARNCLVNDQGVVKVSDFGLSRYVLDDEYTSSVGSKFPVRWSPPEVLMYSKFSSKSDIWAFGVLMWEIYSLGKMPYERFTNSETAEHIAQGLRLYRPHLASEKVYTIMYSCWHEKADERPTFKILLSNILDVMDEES
Briefly: BTK enzyme activity assay, LANCE TR-FRET. The assay is classed as biochemical. The note with it: 50 pM hBTK, 2 μM biotin-A5-peptide, 25 μM ATP; 60 min compound & enzyme incubation; read-out: IC50 BTK activity value. A general note: Time-resolved FRET reads energy transfer from a long-lived donor to a nearby acceptor.

The structures appear in SMILES notation.

For the compound `CN1C[C@@H]2CC[C@@H](c3nc(-c4ccc(C(=O)Nc5cc(C(F)(F)F)ccn5)cc4)c4c(N)nccn34)CN2C1=O` [Example 3, 4-(8-amino-3-((6R,8aS)-2-methyl-3-oxooctahydroimidazo[1,5-a]pyridin-6-yl)imidazo[1,5-a]pyrazin-1-yl)-N-(4-(trifluoromethyl)pyridin-2-yl)benzamide], the concentration for half-maximal inhibition (IC50) in the assay with HeLa cells was determined as 792 nM; in assay [1], 7.2 nM.
On the same counts, the results for `Nc1nccn2c([C@@H]3CC[C@H]4CCC(=O)N4C3)nc(-c3ccc(C(=O)Nc4cc(C(F)(F)F)ccn4)cc3)c12` [Example 4, 4-(8-amino-3-((6R,8aS)-3-oxooctahydroindolizin-6-yl)imidazo[1,5-a]pyrazin-1-yl)-N-(4-(trifluoromethyl)pyridin-2-yl)benzamide] are 61.9 nM and 0.1 nM.
On the same counts, the results for `Nc1nccn2c([C@@H]3CC[C@H]4CCC(=O)N4C3)nc(-c3ccc(C(=O)Nc4ccccn4)cc3)c12` [Example 6, 4-(8-amino-3-((6R,8aS)-3-oxooctahydroindolizin-6-yl)imidazo[1,5-a]pyrazin-1-yl)-N-(pyridin-2-yl)benzamide] are 184 nM and 2 nM.
In the case of `Cc1cnc(NC(=O)c2ccc(-c3nc([C@@H]4CC[C@H]5CCC(=O)N5C4)n4ccnc(N)c34)cc2)s1` [Example 8, 4-(8-amino-3-((6R,8aS)-3-oxooctahydroindolizin-6-yl)imidazo[1,5-a]pyrazin-1-yl)-N-(5-methylthiazol-2-yl)benzamide], the IC50 worked out at 355 nM in the assay with HeLa cells and 2.2 nM in assay [1].
On to `Nc1nccn2c([C@H]3CC[C@@H]4CCC(=O)N4C3)nc(-c3ccc(C(=O)Nc4ccccn4)cc3)c12` [Example 9, 4-(8-amino-3-((6S,8aR)-3-oxooctahydroindolizin-6-yl)imidazo[1,5-a]pyrazin-1-yl)-N-(pyridin-2-yl)benzamide], for which the IC50 in the assay on HeLa cells worked out at 287 nM; in assay [1] it was 194 nM.
The corresponding values for `Nc1nccn2c([C@H]3CC[C@H]4CCC(=O)N4C3)nc(-c3ccc(C(=O)Nc4cc(C(F)(F)F)ccn4)cc3)c12` [Example 10, 4-(8-amino-3-((6S,8aS)-3-oxooctahydroindolizin-6-yl)imidazo[1,5-a]pyrazin-1-yl)-N-(4-(trifluoromethyl)pyridin-2-yl)benzamide] are 1340 nM and 14.7 nM.
For the compound `Nc1nccn2c([C@@H]3CC[C@@H]4CCC(=O)N4C3)nc(-c3ccc(C(=O)Nc4cc(C(F)(F)F)ccn4)cc3)c12` [Example 11, 4-(8-amino-3-((6R,8aR)-3-oxooctahydroindolizin-6-yl)imidazo[1,5-a]pyrazin-1-yl)-N-(4-(trifluoromethyl)pyridin-2-yl)benzamide], the IC50 with HeLa cells was 511 nM; in assay [1], 15.3 nM.
The corresponding values for `N#Cc1ccnc(NC(=O)c2ccc(-c3nc([C@@H]4CC[C@H]5CCC(=O)N5C4)n4ccnc(N)c34)c(F)c2)c1` [Example 15, 4-{8-amino-3-[(6R,8aS)-3-oxooctahydroindolizin-6-yl]imidazo[1,5-a]pyrazin-1-yl}-N-(4-cyanopyridin-2-yl)-3-fluorobenzamide] are 71.9 nM and 0.21 nM.
The corresponding values for `Nc1nccn2c([C@@H]3CC[C@H]4CCC(=O)N4C3)nc(-c3ccc(C(=O)Nc4cc(C5CC5)ccn4)cc3F)c12` [Example 16, 4-{8-amino-3-[(6R,8aS)-3-oxooctahydroindolizin-6-yl]imidazo[1,5-a]pyrazin-1-yl}-N-(4-cyclopropylpyridin-2-yl)-3-fluorobenzamide] are 75.1 nM and 0.2 nM.
On the same counts, the results for `CCc1ccnc(NC(=O)c2ccc(-c3nc([C@@H]4CC[C@H]5CCC(=O)N5C4)n4ccnc(N)c34)cc2)c1` [Example 18, 4-{8-amino-3-[(6R,8aS)-3-oxooctahydroindolizin-6-yl]imidazo[1,5-a]pyrazin-1-yl}-N-(4-ethylpyridin-2-yl)benzamide] are 63.5 nM and 0.16 nM.
As to `Nc1nccn2c([C@@H]3CC[C@H]4CCC(=O)N4C3)nc(-c3ccc(C(=O)Nc4cc(C5CC5)ccn4)cc3)c12` [Example 19, 4-{8-amino-3-[(6R,8aS)-3-oxooctahydroindolizin-6-yl]imidazo[1,5-a]pyrazin-1-yl}-N-(4-cyclopropylpyridin-2-yl)benzamide], the values for the 50% inhibitory concentration (IC50) (with HeLa cells; in assay [1]) were 233 nM and 0.18 nM, respectively.
The corresponding values for `Nc1nccn2c([C@@H]3CC[C@H]4CCC(=O)N4C3)nc(-c3ccc(C(=O)Nc4nccc(C(F)(F)F)n4)cc3)c12` [Example 20] are 2380 nM and 2.2 nM.
For `CC(F)(F)c1ccnc(NC(=O)c2ccc(-c3nc([C@@H]4CC[C@H]5CCC(=O)N5C4)n4ccnc(N)c34)c(F)c2)c1` [Example 21, 4-{8-amino-3-[(6R,8aS)-3-oxooctahydroindolizin-6-yl]imidazo[1,5-a]pyrazin-1-yl}-N-[4-(1,1-difluoroethyl)pyridin-2-yl]-3-fluorobenzamide], the IC50 came out at 234 nM in the assay on HeLa cells and 0.21 nM in assay [1].
The corresponding values for `Nc1nccn2c([C@@H]3CC[C@H]4CCC(=O)N4C3)nc(-c3ccc(C(=O)Nc4cc(C(F)(F)F)ccn4)cc3F)c12` [Example 23, 4-{8-amino-3-[(6R,8aS)-3-oxooctahydroindolizin-6-yl]imidazo[1,5-a]pyrazin-1-yl}-3-fluoro-N-[4-(trifluoromethyl)pyridin-2-yl]benzamide] are 4.13 nM and 0.11 nM.
The corresponding values for `Nc1nccn2c([C@@H]3CC[C@H]4CCC(=O)N4C3)nc(-c3ccc(C(=O)Nc4cc(C(F)(F)F)ccn4)c(F)c3)c12` [Example 24, 4-{8-amino-3-[(6R,8aS)-3-oxooctahydroindolizin-6-yl]imidazo[1,5-a]pyrazin-1-yl}-2-fluoro-N-[4-(trifluoromethyl)pyridin-2-yl]benzamide] are 67 nM and 0.45 nM.
On the same counts, the results for `C[C@H]1OC(=O)N2C[C@H](c3nc(-c4ccc(C(=O)Nc5cc(C(F)(F)F)ccn5)cc4F)c4c(N)nccn34)CC[C@@H]12` [Example 31, 4-{8-amino-3-[(1R,6R,8aS)-1-methyl-3-oxohexahydro[1,3]oxazolo[3,4-a]pyridin-6-yl]imidazo[1,5-a]pyrazin-1-yl}-3-fluoro-N-[4-(trifluoromethyl)pyridin-2-yl]benzamide] are 104 nM and 0.096 nM.
Consider `C[C@@H]1OC(=O)N2C[C@H](c3nc(-c4ccc(C(=O)Nc5cc(C(F)(F)F)ccn5)cc4F)c4c(N)nccn34)CC[C@@H]12` [Example 33, 4-{8-amino-3-[(1S,6R,8aS)-1-methyl-3-oxohexahydro[1,3]oxazolo[3,4-a]pyridin-6-yl]imidazo[1,5-a]pyrazin-1-yl}-3-fluoro-N-[4-(trifluoromethyl)pyridin-2-yl]benzamide], for which the IC50 was 90.4 nM with HeLa cells and 0.17 nM in assay [1].
The corresponding values for `COc1cc(C(=O)Nc2cc(C3CC3)ccn2)ccc1-c1nc([C@@H]2CC[C@H]3CCC(=O)N3C2)n2ccnc(N)c12` [Example 38, 4-{8-amino-3-[(6R,8aS)-3-oxooctahydroindolizin-6-yl]imidazo[1,5-a]pyrazin-1-yl}-N-(4-cyclopropylpyridin-2-yl)-3-methoxybenzamide] are 543 nM and 1.9 nM.
On the same counts, the results for `Nc1nccn2c([C@@H]3CC[C@H]4COCC(=O)N4C3)nc(-c3ccc(C(=O)Nc4cc(C(F)(F)F)ccn4)cc3F)c12` [Example 39] are 57.4 nM and 0.12 nM.
The corresponding values for `Nc1nccn2c([C@@H]3CC[C@H]4CNCC(=O)N4C3)nc(-c3ccc(C(=O)Nc4cc(C(F)(F)F)ccn4)cc3)c12` [Example 40, 4-{8-amino-3-[(7R,9aS)-4-oxooctahydro-2H-pyrido[1,2-a]pyrazin-7-yl]imidazo[1,5-a]pyrazin-1-yl}-N-[4-(trifluoromethyl)pyridin-2-yl]benzamide] are 186 nM and 0.22 nM.
On to `Nc1nccn2c([C@H]3CC[C@@H]4CNCC(=O)N4C3)nc(-c3ccc(C(=O)Nc4cc(C(F)(F)F)ccn4)cc3)c12` [Example 41, 4-{8-amino-3-[(7S,9aR)-4-oxooctahydro-2H-pyrido[1,2-a]pyrazin-7-yl]imidazo[1,5-a]pyrazin-1-yl}-N-[4-(trifluoromethyl)pyridin-2-yl]benzamide], for which the IC50 in the assay on HeLa cells amounted to 793 nM; in assay [1] it was 4 nM.
On the same counts, the results for `Nc1nccn2c([C@@H]3CC[C@H]4CCC(=O)N4C3)nc(-c3ccc(C(=O)Nc4cc(C(F)(F)F)ccn4)c(Cl)c3)c12` [Example 42, 4-{8-amino-3-[(6R,8aS)-3-oxooctahydroindolizin-6-yl]imidazo[1,5-a]pyrazin-1-yl}-2-chloro-N-[4-(trifluoromethyl)pyridin-2-yl]benzamide] are 88 nM and 0.52 nM.
